Assay results published in patent publication US20080287406A1, “Compositions and methods for treating medical conditions” (priority 2007, published 2008).
Where two headings read alike, the source gives them in different places.

Key:
CRP = CRP measurements in 14 week blinded, randomized study; assay type: in vivo, human; conditions: 3 mg Prednisolone + Placebo, N = 69, ITT (LOCF)
Procedure: CRP is an acute phase response protein whose production is stimulated by cytokines, particularly interleukin-6 (IL-6). The relationship between inflammatory processes and elevation in plasma CRP and pro-inflammatory cytokines is well known. Typically a serum CRP level of >3 mg/L is considered elevated. Serum CRP levels can be measured by standard techniques known in the art, e.g., ELISA assays (Kamiya Biomedical Co., Seattle, Wash.).
We conducted a 14 week blinded, randomized study including a split dose corticosteroid therapy or placebo, with regular CRP and inflammatory cytokine measurements. The study population had active rheumatoid arthritis.
(§1) Screening Visit • Day 1 (Baseline Visit)—Start of Run-In Period • Day 14 (±2 days)—End of Run-In Period/Start of Treatment Period • Day 42 (±2 days) • Day 70 (±2 days)—End of Treatment Period/Start of Withdrawal Period • Day 98 (±2 days)—End of Study
The powered study ended after these first 10 weeks. […] A schematic of the study design is shown below.

[1] = system: active rheumatoid arthritis; conditions: 3 mg Prednisolone + Placebo, N = 69, ITT (LOCF)
Source text: A visual analog scale (VAS) provides a measure of a one-dimensional quantity. A VAS generally utilizes a representation of distance, such as a picture of a line with hash marks drawn at regular distance intervals, e.g., ten 1-cm intervals. […] This procedure provides a simple and rapid approach to obtaining quantitative information about how the patient is experiencing pain. VAS scales can also be used, e.g., to measure fatigue. VAS scales and their use are described, e.g., in U.S. Pat. Nos. 6,709,406 and 6,432,937.
We conducted a 14 week blinded, randomized study including a split dose corticosteroid therapy or placebo, with regular CRP and inflammatory cytokine measurements. The study population had active rheumatoid arthritis. The subject must otherwise have been in good general health.
as §1
All eligible subjects received DMARD therapy in a stable dose. Subjects were evaluated for study eligibility at the Screening visit, which was conducted within 14 days before the first dose of study drug. The subject provided written informed consent to participate in the study before any Screening laboratory samples were collected or evaluations performed.
All subjects were given 3 mg prednisolone alone for 2 weeks (Run-In Period). Subjects were then randomized into treatment groups to additionally receive 10 mg paroxetine, 20 mg paroxetine or placebo tablets for 8 weeks (Combination Treatment Period). The powered study ended after these first 10 weeks. All subjects continued in an un-powered part of the study for an additional 4 weeks (Withdrawal Period). In this portion of the study, half of the subjects on 10 mg or 20 mg paroxetine plus 3 mg prednisolone stopped taking paroxetine, and instead took 3 mg prednisolone plus placebo, while the other half stopped taking prednisolone, and instead took either dose of paroxetine plus placebo. Similarly, half of the subjects on prednisolone plus placebo stopped the prednisolone, and instead took two placebo tablets, while the other half continued the regimen of 3 mg prednisolone plus placebo. A schematic of the study design is shown below.

SMILES: C[C@]12C=CC(=O)C=C1CC[C@@H]1[C@@H]2[C@@H](O)C[C@@]2(C)[C@H]1CC[C@]2(O)C(=O)CO [Prednisolone, prednisolone]
- CRP % Change from baseline, Mean (CRP; Day 14): 7.11%
- CRP Change from baseline, Mean (CRP; Day 14): −7.40
- CRP Value, Mean (CRP; Day 14): 11.42
- CRP % Change from baseline, Mean (CRP; Day 42): −17.67%
- CRP Change from baseline, Mean (CRP; Day 42): −8.61
- CRP Value, Mean (CRP; Day 42): 10.22
- CRP % Change from baseline, Mean (CRP; Day 70): −13.66%
- CRP Change from baseline, Mean (CRP; Day 70): −8.95
- CRP Value, Mean (CRP; Day 70): 9.88
- Patient Pain Assessment (VAS) Score % Change from baseline, Mean ([1]; Day 14): −13.65%
- Patient Pain Assessment (VAS) Score Change from baseline, Mean ([1]; Day 14): −7.73
- Patient Pain Assessment (VAS) Score Value, Mean ([1]; Day 14): 45.58
- Patient Pain Assessment (VAS) Score % Change from baseline, Mean ([1]; Day 42): −19.23%
- Patient Pain Assessment (VAS) Score Change from baseline, Mean ([1]; Day 42): −10.57
- Patient Pain Assessment (VAS) Score Value, Mean ([1]; Day 42): 42.74
- Patient Pain Assessment (VAS) Score % Change from baseline, Mean ([1]; Day 70): −17.84%
- Patient Pain Assessment (VAS) Score Change from baseline, Mean ([1]; Day 70): −12.28
- Patient Pain Assessment (VAS) Score Value, Mean ([1]; Day 70): 41.04
